# Measurements as given in PMC11930985 (Nature Communications, 2025).
# Where “and” joins values, the source holds several entries; their conditions need not be identical. Equal values may be shown once. Read-outs that look alike come from different tables or passages of the source.
# Assays:
# AML cell lines = test system: AML cell lines; design: method as in Investigator's Brochure (IB) version 5.0; conditions: ref Investigator's Brochure (IB) version 5.0, cited from earlier work
# Flt4 [1] = target: Flt4; design: method as in Investigator's Brochure (IB) version 5.0; conditions: ref Investigator's Brochure (IB) version 5.0; cited from earlier work
# [2] = Bemcentinib plasma PK (LC-MS/MS, population PK model); assay type: in vivo, human; conditions: for Cmax / AUC / half-life: human, plasma, oral; for Cmax: read-out: mean Cmax at steady state
# Description: Thereafter, a pre-dose sample was collected at all study visits ( > Cycle 3 up to and including Cycle 15) and at End of Study. PK samples were measured using a fully validated liquid chromatography with tandem mass spectrometry method for bemcentinib. […] The PopPK model was developed by evaluating various structural models including 1 compartment and 2 compartment models. Covariate analysis was performed using a forward addition and backward elimination procedure, from which a preliminary base model was selected. During covariate analysis, continuous covariates were centered on the median population values, and the most common or most relevant category was used as the reference value for categorical covariates. A visual predictive check (VPC) was conducted to verify that the final model adequately predicted both the central tendency and variability of the observed data across studies or by proton pump inhibitor use. Quantification of parameter uncertainty in the final model was assessed by nonparametric bootstrap analysis. Population PK analysis was performed using the nonlinear mixed effects modelling methodology as implemented in the NONMEM program Version 7.4.4[35]. Data postprocessing was performed using R (Version 3.6.1)[36]. Individual population PK model parameters were estimated using NONMEM with the following $ESTIMATION parameters: METHOD = COND INTERACTION […] = 0 […] = 3. These parameters were subsequently used to predict individual steady-state profiles with a dense PK sampling scheme using the SIMULATION method in NONMEM.
# Flt4 [3] = test system: Flt4; design: method as in Investigator's Brochure (IB) version 5.0; conditions: ref Investigator's Brochure (IB) version 5.0; cited from earlier work; remark: listed apart in the source
# Flt4 [4] = test system: Flt4; design: method as in Investigator's Brochure (IB) version 5.0; conditions: ref Investigator's Brochure (IB) version 5.0; cited from earlier work; remark: listed apart in the source
# pSTAT5 Y694 = experiment: CyTOF maximal inhibition in Undefined/Immature Myeloid cells: pSTAT5; assay type: in vivo, human
# Text: Pharmacodynamic endpoints included the measurement of inhibition of pAXL, pERK, pAKT, pS6 and pSTAT1/3/5 in blast cells (defined as cells with abnormal surface marker expression as compared to healthy donor peripheral blood mononuclear cells and undefined/immature myeloid cells (defined as cells carrying myeloid markers but lacking distinguishing terminal differentiation markers). Mass cytometry time of flight (CyTOF) was used for the determination of the pharmacodynamic markers using a previously validated and tested panel of mass-tagged antibodies[39],[40]. The antibodies in the panel are listed in Supplementary Table 5. Briefly, fixed leukocytes from peripheral blood were barcoded using a 20-plex metal barcoding kit (Standard Biotools, Cell-ID 201060) according to manufacturer’s protocol, allowing all the samples from a single individual to be stained and analysed in parallel. All analysis runs included barcoded peripheral blood mononuclear cells (PBMCs) from at least one healthy donor and an identical barcoded reference sample (mix of PBMCs from six healthy donors). […]
# For each population, marker, and sample, the 95th percentile of the non-transformed expression values was calculated. […]
structure (smiles),measurement,setting,value
Nc1nc(Nc2ccc3c(c2)CC[C@@H](N2CCCC2)CC3)nn1-c1cc2c(nn1)-c1ccccc1CCC2 [Bemcentinib],Effect when administered with cytarabine (Ara-C),AML cell lines; preliminary studies,at least additive
same,Effect of exposure in AML cell lines,"AML cell lines; with G1 arrest, reduced phosphorylated axl and ERK",exposure-induced differentiation
same,Kd,Flt4 [1],460 nM
same,mean Ctrough at steady state,"[2]; DE cohort, maintenance 100 mg daily",136 ± 109 ng/mL
same,mean Ctrough at steady state,"[2]; DE cohort, maintenance 300 mg daily",382 ± 193 ng/mL
same,bemcentinib concentration,"[2]; Figure 4, individual patients, concentration paired with maximum pAXL(Y779) inhibition",358 ng/mL and 79 ng/mL and 276 ng/mL and 103 ng/mL and 178 ng/mL and 74 ng/mL and 173 ng/mL and 0 ng/mL and 122 ng/mL and 105 ng/mL and 73.3 ng/mL and 6.36 ng/mL
same,mean Ctrough at steady state,"[2]; LDAC cohort, maintenance 200 mg daily",196 ± 124 ng/mL
same,bemcentinib concentration,"[2]; Supplementary Figure 1b, individual patients, concentration paired with maximum pSTAT5 (Y694) inhibition",358 ng/mL and 145 ng/mL and 276 ng/mL and 103 ng/mL and 124 ng/mL and 74 ng/mL and 118 ng/mL and 0 ng/mL and 81.5 ng/mL and 112 ng/mL and 270 ng/mL
same,bemcentinib concentration,"[2]; Supplementary Figure 1c, individual patients, concentration paired with maximum pERK1/2 (T202/Y204) inhibition",358 ng/mL and 78.9 ng/mL and 276 ng/mL and 134 ng/mL and 130 ng/mL and 74.6 ng/mL and 118 ng/mL and 0 ng/mL and 98 ng/mL and 94 ng/mL and 73.4 ng/mL and 270 ng/mL
same,bemcentinib concentration,"[2]; Supplementary Figure 1d, individual patients, concentration paired with maximum pAKT (S473) inhibition",408 ng/mL and 78.9 ng/mL and 276 ng/mL and 103 ng/mL and 130 ng/mL and 74 ng/mL and 225 ng/mL and 0 ng/mL and 81.5 ng/mL and 183 ng/mL and 73.4 ng/mL and 270 ng/mL
same,Cmax,"[2]; 100 mg, DE cohort, maintenance 100 mg daily, 10 patients",140 ± 110 ng/mL
same,AUC,"[2]; 100 mg, DE cohort, maintenance 100 mg daily, read-out: AUC",3310 ± 2630 ng·h/mL
same,half-life,"[2]; 200 mg daily, LDAC cohort, read-out: median t1/2 (converted)",124 h
same,Cmax,"[2]; 200 mg, DE cohort, maintenance 200 mg daily, 21 patients",162 ± 121 ng/mL
same,AUC,"[2]; 200 mg, DE cohort, maintenance 200 mg daily, read-out: AUC",3810 ± 2860 ng·h/mL
same,Cmax,"[2]; 200 mg, LDAC cohort, maintenance 200 mg daily, 35 patients",210 ± 128 ng/mL
same,AUC,"[2]; 200 mg, LDAC cohort, maintenance 200 mg daily, read-out: mean AUC",4890 ± 3020 ng·h/mL
same,Cmax,"[2]; 300 mg, DE cohort, maintenance 300 mg daily, 5 patients",398 ± 200 ng/mL
same,AUC,"[2]; 300 mg, DE cohort, maintenance 300 mg daily, read-out: AUC",9390 ± 4720 ng·h/mL
same,half-life,"[2]; DE cohort, maintenance 100 mg daily, read-out: median half-life (t1/2) (converted)",159 h
same,half-life,"[2]; DE cohort, maintenance 200 mg daily, read-out: median half-life (t1/2) (converted)",124 h
same,half-life,"[2]; DE cohort, maintenance 300 mg daily, read-out: median half-life (t1/2) (converted)",156 h
same,IC50,Flt4 [3],41 nM
same,IC50,Flt4 [4],> 1000 nM
same,EC50,"pSTAT5 Y694; Homo sapiens, Undefined/Immature Myeloid cells, N = 12 patients, read-out: EC50 (± standard error), pSTAT5 Y694 inhibition",0.0913 ± 0.0014 µg/mL
same,Maximum inhibition (percent) pSTAT5 (Y694),"pSTAT5 Y694; Supplementary Figure 1b, individual patients",86.7% and 72.9% and 100% and 27.9% and 21.4% and 51.2% and 0% and 36% and 58.4%
